What was measured:
Acetylcholinesterase [1] = target: Acetylcholinesterase (Homo sapiens, UniProt P22303); assay: (§1) AChE/BuChE Inhibition Assay: The cholinesterase assays were performed using colorimetric method reported by Ellman. The appearance of product was monitored at 412 nm for 5 min using a spectrophotometer. The reaction rates were compared and the percent inhibition due to the presence of test compounds was calculated. Inhibition curve was obtained for each compound. The linear regression parameters were determined and the IC50 values extrapolated.
Acetylcholinesterase (Homo sapiens, UniProt P22303), sequence (P22303 whole entry): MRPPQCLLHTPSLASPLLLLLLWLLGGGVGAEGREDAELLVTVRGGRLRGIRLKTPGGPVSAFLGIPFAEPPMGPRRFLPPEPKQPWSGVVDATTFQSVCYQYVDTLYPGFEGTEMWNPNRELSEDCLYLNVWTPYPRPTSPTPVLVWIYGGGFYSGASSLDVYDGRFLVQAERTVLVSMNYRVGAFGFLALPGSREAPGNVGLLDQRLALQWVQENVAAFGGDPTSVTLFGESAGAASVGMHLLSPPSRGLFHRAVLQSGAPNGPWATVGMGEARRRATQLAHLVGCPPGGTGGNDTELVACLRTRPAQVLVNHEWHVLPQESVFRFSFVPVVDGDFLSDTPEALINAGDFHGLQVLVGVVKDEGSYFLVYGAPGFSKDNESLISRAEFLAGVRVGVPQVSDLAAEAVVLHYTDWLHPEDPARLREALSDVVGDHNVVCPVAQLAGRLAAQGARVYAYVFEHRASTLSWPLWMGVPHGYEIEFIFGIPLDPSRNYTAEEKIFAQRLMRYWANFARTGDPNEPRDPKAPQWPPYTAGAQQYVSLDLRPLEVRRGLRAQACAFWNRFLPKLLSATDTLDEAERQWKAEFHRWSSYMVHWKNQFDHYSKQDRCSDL

Acetylcholinesterase [2] = target: Acetylcholinesterase (Electrophorus electricus, UniProt O42275); assay: as §1
Acetylcholinesterase (Electrophorus electricus, UniProt O42275), sequence (O42275 whole entry): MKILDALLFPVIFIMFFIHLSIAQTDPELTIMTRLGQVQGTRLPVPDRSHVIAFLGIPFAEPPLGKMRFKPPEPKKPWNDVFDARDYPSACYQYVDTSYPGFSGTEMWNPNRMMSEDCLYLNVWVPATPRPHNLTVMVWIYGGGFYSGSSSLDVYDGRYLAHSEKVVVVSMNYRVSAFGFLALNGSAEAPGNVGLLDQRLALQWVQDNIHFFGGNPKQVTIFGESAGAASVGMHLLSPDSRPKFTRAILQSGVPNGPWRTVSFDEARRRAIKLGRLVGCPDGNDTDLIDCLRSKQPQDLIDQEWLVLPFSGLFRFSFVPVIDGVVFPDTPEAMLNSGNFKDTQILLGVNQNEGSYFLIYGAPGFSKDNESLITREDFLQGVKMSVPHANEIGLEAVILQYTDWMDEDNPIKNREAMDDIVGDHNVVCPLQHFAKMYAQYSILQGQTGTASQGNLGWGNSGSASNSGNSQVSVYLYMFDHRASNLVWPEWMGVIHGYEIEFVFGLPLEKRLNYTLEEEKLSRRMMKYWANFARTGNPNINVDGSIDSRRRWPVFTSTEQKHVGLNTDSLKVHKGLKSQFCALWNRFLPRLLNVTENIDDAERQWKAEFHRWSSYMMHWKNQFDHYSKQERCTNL

Cholinesterase = Cholinesterase (Homo sapiens, UniProt P06276); assay: as §1
Cholinesterase, sequence (P06276 whole entry): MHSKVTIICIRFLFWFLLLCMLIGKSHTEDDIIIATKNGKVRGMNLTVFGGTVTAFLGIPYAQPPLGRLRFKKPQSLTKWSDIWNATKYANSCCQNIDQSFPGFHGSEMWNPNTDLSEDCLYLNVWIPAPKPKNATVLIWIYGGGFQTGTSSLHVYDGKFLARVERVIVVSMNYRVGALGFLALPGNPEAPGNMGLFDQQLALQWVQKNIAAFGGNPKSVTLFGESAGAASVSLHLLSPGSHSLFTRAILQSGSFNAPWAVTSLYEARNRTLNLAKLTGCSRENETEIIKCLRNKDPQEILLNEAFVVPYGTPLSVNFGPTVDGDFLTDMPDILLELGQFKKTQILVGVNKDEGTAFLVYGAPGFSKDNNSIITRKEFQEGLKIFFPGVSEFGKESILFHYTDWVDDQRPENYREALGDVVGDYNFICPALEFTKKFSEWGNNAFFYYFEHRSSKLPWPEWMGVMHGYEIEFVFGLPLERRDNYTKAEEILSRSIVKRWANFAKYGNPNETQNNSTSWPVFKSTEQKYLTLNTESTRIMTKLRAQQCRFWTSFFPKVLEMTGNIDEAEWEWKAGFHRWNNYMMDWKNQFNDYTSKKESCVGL

Row | SMILES | IC50 (Acetylcholinesterase [1]) [nM] | IC50 (Acetylcholinesterase [2]) [nM] | IC50 (Cholinesterase) [nM]
1 | COc1ccc2nc(NCCc3cc[n+](Cc4ccccc4)cc3)sc2c1 | 186 | 441 | 3010
2 | O=[N+]([O-])c1ccc2nc(NCCc3cc[n+](Cc4ccc(F)cc4)cc3)sc2c1 | 96 | 25 | 11900
3 | COc1ccc2nc(NCCc3cc[n+](Cc4c(F)cccc4F)cc3)sc2c1 | 203 | 408 | 826
4 | COc1ccc2nc(NCCc3cc[n+](Cc4ccc(F)cc4)cc3)sc2c1 | 223 | 542 | 5630
5 | Fc1ccc(C[n+]2ccc(CCNc3nc4ccc(F)cc4s3)cc2)cc1 | 269 | 500 | 8160

Source: ChEMBL document CHEMBL3886513, “Benzothiazole-based pyridinium compounds” (2016)
